In patent publication US20080161255A1, “Use of Parp Inhibitors for Prevention and Treatment of Diabetic and Insulin Resistance Complications” (priority 2003, published 2008):

Assays:
prostacyclin synthetase = test: Arterial prostacyclin synthetase activity in insulin resistant Fatty Zucker Rats; format: in vivo; details: Fatty Zucker Rats treated for one week; untreated had only 1% of control Zucker rat activity
Source text: In order to examine whether this phenomenon was present in vivo, and thus had direct clinical relevance, we studied an accepted model of non-diabetic insulin resistance, the Fatty Zucker Rat. In these rats, we examined the activity of the endothelial cell surface enzyme prostacyclin synthetase, which produces a major anti-atherosclerotic product, prostacyclin. This enzyme is known to be directly inactivated by reactive oxygen species.

GAPDH [1] = test: GAPDH activity in bovine aortic endothelial cells; format: cell-based; details: 30 mM glucose; adenoviral overexpression or 3 mM PJ34
Experimental: Cell culture conditions. Confluent bovine aortic endothelial cells (passage 4-10) were maintained in Eagle's MEM containing 0.4% FBS, essential and non-essential amino acid and antibiotics. […] Cells were infected with adenoviruses 48 hr prior to addition of 30 mM glucose. Oligonucleotide synthesis and treatment of cells. […] The S-antisense GAPDH had the following sequence: [NT]. Scrambled oligonucleotides ([NT]) were used as controls. Oligo solutions were prepared in 10 mM TRIS buffer, pH 7.4, containing 1 mM EDTA NaCl. […], and the solution was added to the cells for 2 hr. GAPDH activity. BAECs were grown to confluency, harvested by using trypsin-EDTA after washing twice with PBS, and resuspended in lysis buffer. […] Protein was measured by using the Bio-Rad Coomassie Plus Protein Assay System. GAPDH activity was determined as described previously (Garcia et al., 2001; Tau et al., 1994).

GAPDH [2] = test: Poly(ADP-ribosyl)ation of GAPDH (immunoprecipitation and western blotting); format: cell-based, bovine; details: adenoviral overexpression or 3 mM PJ34
Experimental: Immunoprecipitation. BAECs were plated in 100 mm cell culture plates and grown to confluency. Cells (2×10^7) were scraped from the plates, and 500 μg of protein was immunoprecipitated with 4 μg of the indicated antibody and 20 μl of Protein A Sepharose 4B (Amersham Phamacia Biotech) in binding buffer (final concentration […]).
Western blotting. Immunoprecipitated proteins electrophoresed on 10% PAGE gels were transferred onto nitrocellulose membranes. The immunoblots were developed with 1:1000 dilutions of anti-poly(ADPribose) IgG, and the signal was detected with the ECL System according to the manufacturer's instructions (Amersham Pharmacia Biotech). The images were scanned into a Molecular Dynamics FluorImager and analyzed using the ImageQuant 5.5 program.

hexosamine pathway = test: Hexosamine pathway activity (UDP-GlcNAc concentration by HPLC); format: cell-based, bovine; details: 30 mM glucose plus PJ34
Experimental: (§1) Cell culture conditions. Confluent bovine aortic endothelial cells (passage 4-10) were maintained in Eagle's MEM containing 0.4% FBS, essential and non-essential amino acid and antibiotics. Cells were incubated for 3 days prior to determination of PKC activity, 48 hr prior to determination of hexosamine pathway activity, for 5 days prior to determination of advanced glycation end product formation, and for 6 hr prior to determination of NFκB activation. Cells were infected with adenoviruses 48 hr prior to addition of 30 mM glucose.
Hexosamine pathway activity. Hexosamine pathway activity was assessed by measuring UDP-GlcNAc concentration. Cells were homogenized in three volumes (600 μl) of cold 0.6 M perchloric acid and kept at 0° C. for 10 min. The precipitated proteins were removed by centrifugation for 5 min at 13,500×g, and UDP-GlcNAc in the supernatant was determined by HPLC as previously described (13).

protein kinase C = test: Protein kinase C activity (membrane fraction) in bovine aortic endothelial cells; format: cell-based; details: 30 mM glucose plus PJ34
Experimental: as §1
Protein kinase C activity. The assay was performed according to the manufacturer's instructions using the Protein Kinase C Assay System (Invitrogen, Carlsbad, Calif.).

NFκB = NFκB activation (fluorescence in situ DNA-protein binding assay); format: cell-based, bovine; details: 30 mM glucose plus PJ34
Experimental: as §1
NFκB activation. A fluorescence in situ DNA-protein binding assay was performed in cultured cells as described (Kurose et al., 1997), and fluorescence per cell was determined using IP Lab Spectrum (Scanalytics, Fairfax, Va.).

[3] = test system: intracellular AGE formation; test: Intracellular advanced glycation endproduct formation (quantitative immunoblotting); format: cell-based, bovine; details: 30 mM glucose plus PJ34
Experimental: as §1
Advanced glycation endproducts. Equal amounts of cell extract protein were used for quantitative immunoblotting performed as described (14). Methylglyoxal-derived imidazole advanced glycation endproducts were detected using monoclonal antibody 1H7G5 (identified above as IG7) at a 1:10,000 dilution. Immunocomplexes were visualized using an ECF kit according to the manufacturer's instructions (Amersham International, Piscataway, N.J.) and quantified using a Molecular Dynamics FluorImager and its ImageQuant 4.0 analytical software.

[4] = test system: bovine aortic endothelial cells; test: FFA-induced superoxide / reactive oxygen species generation in endothelial cells; format: cell-based; details: FFA-treated endothelial cells
Source text: FIG. 8 is a graph of experimental data showing the effects of inhibitors of free fatty acid (FFA) oxidation (TDGA), UCP-1, and MnSOD on FFA-induced superoxide generation in bovine aortic endothelial cells.
Since mitochondrial β-oxidation of fatty acids yields the same electron donors as those obtained from glucose metabolism, that is, NADH and FADH2, we hypothesized that increased free fatty acid flux from adipose tissue to vascular endothelium would also increase mitochondrial production of superoxide.

[5] = molecular target: T1, poly(ADP-ribose) polymerase (Bos taurus, UniProt P18493); test: Poly(ADP-ribose) polymerase activity in aortic endothelial cells; format: cell-based, bovine; details: aortic endothelial cells incubated with oleic acid at levels found in non-diabetic insulin resistance subjects
T1 construct: endogenous in cells; host or cells: bovine aortic endothelial cells
T1 sequence (P18493 whole entry): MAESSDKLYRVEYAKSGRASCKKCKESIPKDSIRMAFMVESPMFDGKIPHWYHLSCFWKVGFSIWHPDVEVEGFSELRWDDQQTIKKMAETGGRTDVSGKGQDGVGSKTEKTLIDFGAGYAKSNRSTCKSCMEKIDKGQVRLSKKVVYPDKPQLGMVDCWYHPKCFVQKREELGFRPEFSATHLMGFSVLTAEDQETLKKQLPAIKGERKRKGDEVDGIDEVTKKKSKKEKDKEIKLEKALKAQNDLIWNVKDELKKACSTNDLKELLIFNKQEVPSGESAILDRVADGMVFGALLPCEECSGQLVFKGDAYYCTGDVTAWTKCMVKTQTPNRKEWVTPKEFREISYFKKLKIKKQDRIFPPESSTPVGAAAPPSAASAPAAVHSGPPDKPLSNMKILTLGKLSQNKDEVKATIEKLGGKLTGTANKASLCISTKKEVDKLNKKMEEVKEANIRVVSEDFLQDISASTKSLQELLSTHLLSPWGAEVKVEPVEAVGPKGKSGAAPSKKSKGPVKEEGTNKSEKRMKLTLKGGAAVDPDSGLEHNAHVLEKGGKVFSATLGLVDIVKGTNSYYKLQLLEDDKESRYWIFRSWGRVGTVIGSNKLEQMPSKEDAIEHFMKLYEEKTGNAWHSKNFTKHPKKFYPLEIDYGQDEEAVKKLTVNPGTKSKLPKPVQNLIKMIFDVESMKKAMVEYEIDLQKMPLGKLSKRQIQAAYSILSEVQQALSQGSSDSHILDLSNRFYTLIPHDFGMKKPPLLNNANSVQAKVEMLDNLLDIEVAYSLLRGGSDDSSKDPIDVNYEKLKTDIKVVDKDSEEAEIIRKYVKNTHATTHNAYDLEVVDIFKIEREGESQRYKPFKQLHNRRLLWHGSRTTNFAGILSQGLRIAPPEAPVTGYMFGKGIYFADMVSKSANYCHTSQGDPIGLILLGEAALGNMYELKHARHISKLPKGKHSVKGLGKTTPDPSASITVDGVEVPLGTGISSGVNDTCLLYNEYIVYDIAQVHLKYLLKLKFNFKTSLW
Experimental: Poly(ADP-ribose) polymerase activity. Cells were incubated for 5 min at 37° C. in assay buffer containing 125 nmol NAD^+ spiked with 0.25 μCi of ^3H-NAD^+ (Amersham) as described (12). Enzyme activity was determined by measuring cpm incorporated into protein.

`O=C(O)c1ccc(-c2c3nc(c(-c4ccc(C(=O)O)cc4)c4ccc([n-]4)c(-c4ccc(C(=O)O)cc4)c4nc(c(-c5ccc(C(=O)O)cc5)c5ccc2[n-]5)C=C4)C=C3)cc1.[Mn+3]` [MnTBAP, Manganese (III) tetrakis(4-benzoic acid) porphyrin] was tested. Which “activity of prostacyclin synthetase in aortas” value (prostacyclin synthetase) did it give?
Its value is “restored to supranormal levels”.

What does the source list for `CN(C)CC(=O)Nc1ccc2[nH]c(=O)c3ccccc3c2c1` [PJ34, N-(oxo-5,6-dihdrophenanthridin-2-yl)-N,N-dimethylacetamide]?
hyperglycemia-induced inhibition of GAPDH activity (GAPDH [1]): prevention; poly(ADP-ribosyl)ation of GAPDH induced by 30 mM glucose (GAPDH [2]): completely prevented; effect of 30 mM glucose on UDP-N-acetylglucosamine concentration (hexosamine pathway) (hexosamine pathway): completely prevented; activation of PKC by 30 mM glucose (protein kinase C): completely prevented; effect of 30 mM glucose on NFκB activation (NFκB): completely prevented; effect of 30 mM glucose on intracellular AGE formation [3]: completely prevented

Which “ability of FFAs to induce reactive oxygen species in endothelial cells” value [4] does the source give for `CCCCCCCCCCCCCCC1(C(=O)O)CO1` (stereo not shown) [TDGA] here?
The value was “inhibited”.

For `O=C(O)c1cccnc1` [nicotinic acid], which “activity of prostacyclin synthetase in aortas” value (prostacyclin synthetase) is on record?
The value was “restored to normal levels”.

How did the “increase of PARP activation” value [5] turn out when `CCCCCCCC/C=C\CCCCCCCC(=O)O` [oleic acid] was run?
Its value is 1.5 fold.
